In the supplement of paper PMC10307832:

Tests used:
Assay in all cases: relative viability (nuclei count vs DMSO), 5 days (fraction); higher = more cells survive
[1] = system: HCC-827
In short: (§1)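 One day after seeding in 1536-well plates, lung cancer cell lines were dosed by pin tool. Dosing was either single-drug or a fixed anchor-drug dose plus five library-drug doses (not always all listed) in √10 steps. After 5 days, nuclei were stained in one fix-and-stain step and counted on 4× images, and relative viability is the nuclei count of treated wells over that of vehicle wells, given as the median of duplicate plates.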

[2] = system: NCI-H647
In short: as §1

[3] = system: EPLC-272H
In short: as §1

[4] = system: NCI-H2170
In short: as §1

[5] = system: 201T
In short: as §1

[6] = system: LOU-NH91
In short: as §1

[7] = system: NCI-H1437
In short: as §1

[8] = system: BEN
In short: as §1

[9] = system: LU99A
In short: as §1

[10] = system: H3255
In short: as §1

[11] = system: EKVX; details: first compound 0.0002 µM
In short: as §1

## CC(=O)O[C@@]12CO[C@@H]1C[C@H](O)[C@@]1(C)C(=O)[C@H](O)C3=C(C)[C@@H](OC(=O)[C@H](O)[C@@H](NC(=O)OC(C)(C)C)c4ccccc4)C[C@@](O)([C@@H](OC(=O)c4ccccc4)[C@H]21)C3(C)C [Docetaxel] + Cc1cc(Nc2cc(N3CCN(C)CC3)nc(Sc3ccc(NC(=O)C4CC4)cc3)n2)n[nH]1 [Tozasertib] (partner 0.1 µM)
[1]; first compound 0.0002 µM
  relative viability: 0.406
[1]; first compound 0.000632 µM
  relative viability: 0.412
[1]; first compound 0.002 µM
  relative viability: 0.328
[1]; first compound 0.006325 µM
  relative viability: 0.332
[1]; first compound 0.02 µM
  relative viability: 0.295
[2]; first compound 0.0002 µM
  relative viability: 0.258
[2]; first compound 0.000632 µM
  relative viability: 0.339
[2]; first compound 0.002 µM
  relative viability: 0.148
[2]; first compound 0.006325 µM
  relative viability: 0.132
[2]; first compound 0.02 µM
  relative viability: 0.103
[3]; first compound 0.0002 µM
  relative viability: 0.219
[3]; first compound 0.000632 µM
  relative viability: 0.129
[3]; first compound 0.002 µM
  relative viability: 0.132
[3]; first compound 0.006325 µM
  relative viability: 0.0975
[3]; first compound 0.02 µM
  relative viability: 0.104
[4]; first compound 0.0002 µM
  relative viability: 0.615
[4]; first compound 0.000632 µM
  relative viability: 0.581
[4]; first compound 0.002 µM
  relative viability: 0.43
[4]; first compound 0.006325 µM
  relative viability: 0.222
[4]; first compound 0.02 µM
  relative viability: 0.175
[5]; first compound 0.0002 µM
  relative viability: 0.937
[5]; first compound 0.000632 µM
  relative viability: 0.751
[5]; first compound 0.002 µM
  relative viability: 0.581
[5]; first compound 0.006325 µM
  relative viability: 0.453
[5]; first compound 0.02 µM
  relative viability: 0.325
[6]; first compound 0.0002 µM
  relative viability: 0.657
[6]; first compound 0.000632 µM
  relative viability: 0.574
[6]; first compound 0.002 µM
  relative viability: 0.39
[6]; first compound 0.006325 µM
  relative viability: 0.383
[6]; first compound 0.02 µM
  relative viability: 0.247
[7]; first compound 0.0002 µM
  relative viability: 0.354
[7]; first compound 0.000632 µM
  relative viability: 0.374
[7]; first compound 0.002 µM
  relative viability: 0.241
[7]; first compound 0.006325 µM
  relative viability: 0.273
[7]; first compound 0.02 µM
  relative viability: 0.201
[8]; first compound 0.0002 µM
  relative viability: 0.499
[8]; first compound 0.000632 µM
  relative viability: 0.503
[8]; first compound 0.002 µM
  relative viability: 0.473
[8]; first compound 0.006325 µM
  relative viability: 0.418
[8]; first compound 0.02 µM
  relative viability: 0.426
[9]; first compound 0.0002 µM
  relative viability: 0.262
[9]; first compound 0.000632 µM
  relative viability: 0.289
[9]; first compound 0.002 µM
  relative viability: 0.236
[9]; first compound 0.006325 µM
  relative viability: 0.307
[9]; first compound 0.02 µM
  relative viability: 0.211
[10]; first compound 0.0002 µM
  relative viability: 0.83
[10]; first compound 0.000632 µM
  relative viability: 0.507
[10]; first compound 0.002 µM
  relative viability: 0.241
[10]; first compound 0.006325 µM
  relative viability: 0.264
[10]; first compound 0.02 µM
  relative viability: 0.236
[11]
  relative viability: 0.519
